Where a name gives a salt, the structure may show the parent alone. Read-outs that look alike come from different tables or passages of the source.

Experiment [1] concerns postsynaptic α-adrenoreceptor (pithed rat). Kind of experiment: Postsynaptic α-adrenoreceptor agonist activity in the pithed rat (diastolic blood pressure). The conditions noted are these: for i.v. dose causing 50 mmHg increase in diastolic blood pressure: Table 5, naive pithed rats.
Procedure: In vivo presynaptic α-adrenoreceptor antagonist activity was determined using the methods outlined in section 2.
For experiment [2], the target named is T1, presynaptic α2-adrenoreceptor (rat vas deferens) (Rattus norvegicus, UniProt P22909).
T1 construct: on the rat vas deferens stimulated at a frequency of 0.1 Hz; from tissue; host or cells: isolated rat vas deferens
T1 sequence (P22909 1-465): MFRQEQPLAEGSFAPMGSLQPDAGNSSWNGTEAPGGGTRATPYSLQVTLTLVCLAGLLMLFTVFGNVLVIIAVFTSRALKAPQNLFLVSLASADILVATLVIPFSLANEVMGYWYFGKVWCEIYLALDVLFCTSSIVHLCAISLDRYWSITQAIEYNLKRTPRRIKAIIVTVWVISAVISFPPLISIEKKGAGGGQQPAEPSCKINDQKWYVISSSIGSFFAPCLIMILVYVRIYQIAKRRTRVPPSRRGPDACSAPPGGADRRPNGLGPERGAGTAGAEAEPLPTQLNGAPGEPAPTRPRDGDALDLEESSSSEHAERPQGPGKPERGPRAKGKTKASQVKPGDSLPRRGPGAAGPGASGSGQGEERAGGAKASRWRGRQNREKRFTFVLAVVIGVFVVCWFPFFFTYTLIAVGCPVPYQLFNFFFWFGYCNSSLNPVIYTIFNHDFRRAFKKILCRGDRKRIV
Kind of experiment: Presynaptic α-adrenoreceptor antagonism vs clonidine, isolated rat vas deferens (0.1 Hz stimulation). Format: cell-based.

Experiment [3] addresses T2, postsynaptic α-adrenoreceptor (rat anococcygeus muscle) (Rattus norvegicus, UniProt P43140).
T2 construct: the rat anococcygeus muscle is used to establish postsynaptic α-adrenoreceptor activity; from tissue; host or cells: isolated rat anococcygeus muscle
T2 sequence (P43140 1-466): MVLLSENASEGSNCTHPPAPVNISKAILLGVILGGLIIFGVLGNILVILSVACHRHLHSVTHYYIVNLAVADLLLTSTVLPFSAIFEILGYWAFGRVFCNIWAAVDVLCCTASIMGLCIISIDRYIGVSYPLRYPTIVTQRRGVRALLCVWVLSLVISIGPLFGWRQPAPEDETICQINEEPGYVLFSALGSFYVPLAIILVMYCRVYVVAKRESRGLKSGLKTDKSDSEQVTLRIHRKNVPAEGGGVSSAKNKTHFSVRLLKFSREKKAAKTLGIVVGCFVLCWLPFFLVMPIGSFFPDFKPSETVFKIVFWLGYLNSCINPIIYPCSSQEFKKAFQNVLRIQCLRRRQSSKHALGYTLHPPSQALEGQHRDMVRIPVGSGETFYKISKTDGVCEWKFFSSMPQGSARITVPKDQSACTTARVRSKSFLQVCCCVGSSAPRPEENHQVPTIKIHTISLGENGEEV
Kind of experiment: Postsynaptic α-adrenoreceptor antagonism vs noradrenaline contractions, isolated rat anococcygeus muscle. The experiment is classed as cell-based. From the text:
This in vitro model is particularly useful as an initial screen for studying presynaptic activity in isolation since the physiological nature of the vas deferens tissue is such that the postsynaptic receptors located therein are particularly inaccessible to exogenous agents. In consequence an alternative tissue, the rat anococcygeus muscle is used to establish postsynaptic α-adrenoreceptor activity. Antagonism of noradrenaline contractions is used to determine pA2 values at postsynaptic α-adrenoreceptors.

The subject of experiment [4] is presynaptic α-adrenoreceptor (vas deferens, pithed rat). The experiment can be described thus: Presynaptic α-adrenoreceptor antagonism in the pithed rat (reversal of clonidine block on vas deferens, i.v.). To be noted: for i.v. dose of antagonist causing 50% reversal of clonidine block on vas deferens: Table 3, cumulative i.v. dosing, clonidine 100 μg/kg i.v., mean of a minimum of 4 rats.
Procedure: The test drugs were injected intravenously in a cumulative dosing schedule and their abilities to reverse the inhibition of hypogastric nerve stimulation reflected their presynaptic antagonism.

In experiment [5] the target is T3, postsynaptic α-adrenoreceptor (anococcygeus muscle) (Rattus norvegicus, UniProt P43140).
T3 construct: compound giving 50% maximum contraction in this instance, of the anococcygeus muscle; from tissue; host or cells: isolated anococcygeus muscle (rat)
T3 sequence (P43140 1-466): T2 sequence (P43140 1-466)
The experiment can be described thus: Postsynaptic α-adrenoreceptor agonist activity, isolated anococcygeus muscle. The experiment is classed as cell-based. To be noted: Table 4; negative log of molar concentration giving 50% maximum contraction; mean of a minimum of 3 experiments; read-out: Postsynaptic agonism pD2 (anococcygeus) (converted).

With `Clc1cccc(Cl)c1N=C1NCCN1` [Clonidine, reference compound], the “i.v. dose causing 50 mmHg increase in diastolic blood pressure” value (from here on “i.v. dose causing 50 mmHg increase”) in experiment [1] amounted to 0.003 mg/kg.
`c1ccc2oc(C3=NCCN3)cc2c1` [Compound A, 2-(2-benzofuranyl)-2-imidazoline, reference compound]: the Kb is 832 nM in experiment [2] (Table 4, isolated rat vas deferens, mean of a minimum of 3 experiments) and 5750 nM in experiment [3] (Table 4, rat anococcygeus muscle, read-out: postsynaptic antagonist pA2 (rat anococcygeus muscle) (converted)).
`Clc1ccc2c(c1)CC(C1=NCCN1)O2` (stereo not drawn) [Example 5, 2-[2-(5-chloro-2,3-dihydrobenzofuranyl)]-2-imidazoline hydrochloride]: in experiment [4], the “i.v. dose of antagonist causing 50% reversal of clonidine block on vas deferens” value is 0.102 mg/kg. Further, the “relative potency against in vivo presynaptic α-adrenoreceptor stimulant effects of clonidine” value in experiment [4] (compound of Example 5 compared with phentolamine) is “approximately equipotent”. Besides, in experiment [4] (vs yohimbine, i.v. (Table 3)), the “potency relative to yohimbine in pithed rats” value is given as “approximately 8 times”. Further, the Kb was 6.31 nM in experiment [2] and 631 nM in experiment [3] (Table 2, isolated rat anococcygeus, mean of a minimum of 5 experiments, read-out: Postsynaptic antagonism pA2 vs Noradrenaline (anococcygeus) (converted)). Besides, the Pre/post synaptic ratio in experiment [2] (antagonism vs clonidine (rat vas deferens) to antagonism vs noradrenaline (rat anococcygeus)) worked out at 100.
As for `c1ccc2c(c1)CC(C1=NCCN1)O2` (stereo not drawn) [Example 6, 2-[2-(2,3-dihydrobenzofuranyl)]-2-imidazoline hydrochloride], the “i.v. dose causing 50 mmHg increase” value in experiment [1] is given as 0.020 mg/kg. The “potency as postsynaptic α-adrenoreceptor agonist relative to phenylephrine” value in experiment [1] (vs phenylephrine, conclusion of section 4) is “slightly more potent than phenylephrine”. Further, the “i.v. dose causing 50% reversal of clonidine block on vas deferens” value in experiment [4] (Table 5) was determined as 0.030 mg/kg. The molecule further gave a Kb in experiment [2] of 3.16 nM. The “presynaptic α-adrenoreceptor antagonist properties” value in experiment [2] (qualitative, b182: in both isolated tissues and intact animals) is given as “displays presynaptic α-adrenoreceptor antagonist properties”. In experiment [2] (vs dehydro compound (Compound A), isolated vas deferens), the “potency as presynaptic α2 antagonist relative to the analogous dehydro compound” value is reported as “more than 200 times”. The EC50 in experiment [5] is 501 nM.
For the molecule `CN1CCN2c3ccccc3Cc3ccccc3C2C1` (stereo not drawn) [Mianserin HCl, reference compound], in experiment [4], the “i.v. dose of antagonist causing 50% reversal of clonidine block on vas deferens” value was above 4.4 mg/kg.
As for `CN1CCN2c3ccccc3Cc3ccccc3C2C1` (stereo not drawn) [Mianserin, reference compound], in experiment [4] (cumulative intravenous dose of 4.4 mg/kg), the “maximum reversal of the inhibitory effects of clonidine on hypogastric nerve stimulation” value was 36%.
Regarding `Cc1ccc(N(CC2=NCCN2)c2cccc(O)c2)cc1` [Phentolamine mesylate, reference compound], the “i.v. dose of antagonist causing 50% reversal of clonidine block on vas deferens” value in experiment [4] is given as 0.12 mg/kg.
For `CNC[C@H](O)c1cccc(O)c1` [Phenylephrine, reference compound], in experiment [1], the “i.v. dose causing 50 mmHg increase” value is 0.030 mg/kg.
Turning to `COC(=O)[C@@H]1[C@H]2C[C@H]3c4[nH]c5ccccc5c4CCN3C[C@@H]2CC[C@@H]1O` [Yohimbine HCl, reference compound], the “i.v. dose of antagonist causing 50% reversal of clonidine block on vas deferens” value in experiment [4] is reported as 0.86 mg/kg.

Source of the values: patent US4411908A, “Imidazoline derivatives as presynaptic α2 -adrenoreceptor antagonists” (priority 1981, dated 1983).
